According to US20070249729A1, “Method of Treating Elevated Plasma Homocysteine Levels in Esrd Patients” (priority 2003, published 2007):
“And” between values parts separate entries of the source, which are not always exact repeats. Identical values can stand only once.

Assays:
plasma tHcy and cysteine = experiment: Single dose pilot study, 5 maintenance hemodialysis patients: plasma and dialysate tHcy and cysteine; format: in vivo, human
Description: Blood samples were drawn at selected intervals during a mid-week dialysis session during which no Mesna was given. One week later, subjects received a single, 5 mg/kg, pre-dialysis, intravenous dose of Mesna and blood samples were drawn throughout the dialysis session. Dialysate samples were also collected from 2 patients. […] A pre-dialysis plasma sample was also drawn before the next dialysis session 2 days later.

[1] = Tolerability of Mesna in ESRD hemodialysis patients; format: in vivo, human
Description: To assess baseline total plasma Hcy concentrations, 5 ml blood samples (EDTA) were drawn pre- and post-dialysis for all 7 dialysis sessions during the 14 day study period. On day 5 (corresponding to the third dialysis session) blood samples were also drawn at various times throughout the dialysis treatment (0.5, 1.0, 2.0 and 3.0 hours) to determine baseline kinetic data. Undiluted ultrafiltrate was obtained from 2 patients by stopping the dialysate flow while maintaining the patient on ultrafiltration. Once 200 ml of dialysate had been displaced from the dialyzer, an undiluted ultrafiltrate sample was drawn from a port specially installed for the study. On the treatment day (a mid-week dialysis session corresponding to day 7 of the study), a single 5 mg/kg dose of Mesna was infused directly into the venous return on the dialysis machine over 5 minutes. Blood samples were drawn pre-dialysis, 4 minutes after Mesna administration, 0.5, 1.0, 2.0, 3.0 hours and post-dialysis. Undiluted ultrafiltrate was also collected from 2 of the patients as described above. Pre- and post-dialysis blood samples were also drawn on each of the 3 subsequent dialysis treatments (corresponding to days 9, 12 and 14) to determine the duration of Mesna's action and how long it remains in the blood. All blood samples were immediately placed on ice and centrifuged within 30 minutes at 1500×g for 10 minutes. […]

protein bound Hcy = protein bound Hcy (Homo sapiens, UniProt P02768); experiment: In vitro thiol exchange assay (free dialyzable Hcy in plasma/serum); settings: for AUC of free Hcy vs time: 300 μM, plasma of healthy subjects, n=6, mean +/-SE
protein bound Hcy, sequence (P02768 25-609): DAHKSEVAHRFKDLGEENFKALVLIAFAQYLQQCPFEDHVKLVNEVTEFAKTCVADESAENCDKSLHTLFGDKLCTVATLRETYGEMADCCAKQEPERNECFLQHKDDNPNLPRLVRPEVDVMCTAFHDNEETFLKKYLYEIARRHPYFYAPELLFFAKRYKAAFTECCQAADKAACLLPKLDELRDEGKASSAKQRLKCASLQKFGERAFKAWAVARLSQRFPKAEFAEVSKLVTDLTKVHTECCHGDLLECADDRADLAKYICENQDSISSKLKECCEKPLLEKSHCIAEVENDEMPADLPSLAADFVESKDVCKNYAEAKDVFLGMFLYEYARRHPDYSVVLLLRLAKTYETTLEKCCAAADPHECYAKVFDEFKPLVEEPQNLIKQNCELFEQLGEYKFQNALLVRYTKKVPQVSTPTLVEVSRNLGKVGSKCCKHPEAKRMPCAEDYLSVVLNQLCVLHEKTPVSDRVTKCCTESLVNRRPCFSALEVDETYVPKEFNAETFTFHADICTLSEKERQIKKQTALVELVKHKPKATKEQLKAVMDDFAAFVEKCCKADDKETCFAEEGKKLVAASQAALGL
Description: To determine the efficacy of Mesna in vitro a thiol exchange assay was developed. This assay evaluates the ability of thiol-containing drugs to exchange with protein bound Hcy and other thiols yielding a larger free, dialyzable fraction of Hcy. 60 mL of blood was drawn from 6 healthy subjects and plasma was obtained by centrifugation at 1500×g. D,L Homocysteine was then added to each plasma sample to a final concentration of 30 μM. The samples were allowed to equilibrate at 4° C. for 72 hours to allow covalent, disulfide bonding of Hcy to plasma proteins. To conduct each assay, 380 μL of the aforementioned plasma was pipetted into a 1.7 mL polypropylene snap-cap tube. 20 uL of Mesna (diluted in 4 mM ethylenediaminetetraacetic acid disodium salt (EDTA), pH=7) was then added to the sample to final concentrations ranging from 0 μM (EDTA vehicle) to 10 000 μM. The sample was incubated for 30 minutes at 37° C. 50 μL aliquots were removed at 0, 2, 5, 10, 15 and 30 at which time plasma proteins were precipitated with 25 μL of 15% sulphosalicylic acid. […] Results for each concentration of Mesna are mean +/−SE, n=6.
Numerous compounds that may modulate protein binding and thiol exchange accumulate in the serum of patients with end-stage renal disease (ESRD). To verify that none of these compounds alter Mesna's exchange with protein bound Hcy, a single concentration of Mesna (300 μM) was tested in a thiol exchange assay (described in Example 4) in serum from patients with ESRD or healthy controls.
The in vitro thiol exchange potential of Mesna was compared with another thiol-containing drug, n-acetylcysteine (NAC) by the thiol exchange assay described in Example 4. 300 μM NAC was compared with 150 and 300 μM Mesna in the plasma of healthy subjects.

[2] = human, in vivo
Description: To evaluate the in vivo effect of Mesna on plasma tHcy, 5 maintenance hemodialysis patients were recruited to participate in a single dose pilot study. Blood samples were drawn at selected intervals during a mid-week dialysis session during which no Mesna was given. One week later, subjects received a single, 5 mg/kg, pre-dialysis, intravenous dose of Mesna and blood samples were drawn throughout the dialysis session. Dialysate samples were also collected from 2 patients. Total Hcy and cysteine were measured in plasma and dialysate by the modified method of Jacobsen et al.^20 Mesna caused a profound, rapid decrease in plasma tHcy and cysteine (see FIG. 11 and 12). […] A pre-dialysis plasma sample was also drawn before the next dialysis session 2 days later. Plasma tHcy was 2.3 μM lower with Mesna than control (P=0.047) indicating a residual effect of Mesna on tHcy concentrations.
Concentrations of Mesna were also measured in plasma (n=5) and dialysate (n=2) (see FIG. 13).

albumin bound Hcy = albumin bound Hcy (Homo sapiens, UniProt P02768); settings: 305 μmol/L Mesna
albumin bound Hcy, sequence (P02768 25-609): as above
Description: Plasma was supplemented with reduced homocysteine (30 μmol/L) and allowed to equilibrate with protein and endogenous thiols for 72 hours. Mesna or diluent (control) was then added to the plasma and incubated at 37° C. for 15 minutes. 1 ml of plasma was pipetted into a micropartition device and centrifuged at 1500×g for 10 minutes. Free (dialyzable) Hcy was then determined in the ultrafiltrate.
30 ml of blood (EDTA) was obtained from a healthy subject with normal renal function. The blood was immediately centrifuged at 1500×g and the plasma was separated. D,L Homocysteine was then added to the plasma to a final concentration of 30 μmol/L. The sample was incubated at 4° C. for 72 hours to allow the homocysteine to covalently bind to protein and other thiols. Mesna was added to 1 ml of plasma to a final concentration of 305 μmol/L. An equal volume of diluent was added to 1 ml of plasma as a control. The plasma (1 ml) was then incubated at 37° C. for 15 minutes after which it was pipetted into an Amicon (Amicon Canada, Oakville, Ontario) type YMT micropartition system for separation of free from protein bound solutes. The micropartition system was centrifuged at 1500 X g for 10 minutes and the ultrafiltrate obtained was stored at −20° C. until analysis.
Total plasma Hcy and other low molecular weight thiols were measured by HPLC-FD after pre-column derivitization as described by Jacobsen et al.^20 Briefly, disulfide bonds were reduced with 1.43 M sodium borohydride. Excess reducing agent was consumed by the addition of 1.2 M HCl after which thiols were derivitized with monobromobimane. Protein was precipitated with 1.5 M perchloric acid and the sample pH was raised to ˜3.5 with a solution of 2M citrate and 10 N NaOH.
Thiol amino acids were separated on a Waters Nova-Pak C18 (150×3.9 mm, 5μ) column. The mobile phase consisted of 4% acetonitrile/25 mM ammonium formate buffer, pH=3.8. Since Mesna is also a low molecular weight thiol it can also be measured as a bimane derivative, although it is very late eluting when the above mentioned chromatographic conditions are used. […]

[3] = Intra-dialytic Mesna kinetics in 3 ESRD hemodialysis patients; format: in vivo, human
Description: To assess baseline total plasma Hcy concentrations, 5 ml blood samples (EDTA) were drawn pre- and post-dialysis for all 7 dialysis sessions during the 14 day study period. On day 5 (corresponding to the third dialysis session) blood samples were also drawn at various times throughout the dialysis treatment (0.5, 1.0, 2.0 and 3.0 hours) to determine baseline kinetic data. Undiluted ultrafiltrate was obtained from 2 patients by stopping the dialysate flow while maintaining the patient on ultrafiltration. Once 200 ml of dialysate had been displaced from the dialyzer, an undiluted ultrafiltrate sample was drawn from a port specially installed for the study. On the treatment day (a mid-week dialysis session corresponding to day 7 of the study), a single 5 mg/kg dose of Mesna was infused directly into the venous return on the dialysis machine over 5 minutes. Blood samples were drawn pre-dialysis, 4 minutes after Mesna administration, 0.5, 1.0, 2.0, 3.0 hours and post-dialysis. Undiluted ultrafiltrate was also collected from 2 of the patients as described above. Pre- and post-dialysis blood samples were also drawn on each of the 3 subsequent dialysis treatments (corresponding to days 9, 12 and 14) to determine the duration of Mesna's action and how long it remains in the blood. All blood samples were immediately placed on ice and centrifuged within 30 minutes at 1500×g for 10 minutes. Plasma and ultrafiltrate were stored at −20° C. until analysis.
Therefore, the inventors modified the chromoatographic conditions such that 4% acetonitrile was run for 7 minutes and then a gradient of 4% to 70% acetonitrile was used from 7 to 20 minutes.

[4] = cited from earlier work
[5] = tested on: total plasma Hcy and cysteine; experiment: In vivo pilot study, 3 ESRD hemodialysis patients, single iv Mesna: intra-dialytic plasma tHcy and cysteine; design: species or system human
Source text: 3 vitamin supplemented ([…], Landmark Medical Systems Inc. Unionville, Ontario) maintenance hemodialysis patients (2 males, 1 female) were recruited from the dialysis unit at London Health Sciences Centre-University Campus. Inclusion criteria were any vitamin supplemented patients on thrice weekly hemodialysis for at least 90 days who were willing to sign a letter of informed consent. Patients were excluded from the study if they had serum albumin≦30 g/L. The study protocol was approved by the human subject research ethics board at the University of Western Ontario. Patients were dialyzed with Fresenius Optiflux hollow fiber dialyzers (Fresenius AG, Bad Homburg, Germany). […] On day 5 (corresponding to the third dialysis session) blood samples were also drawn at various times throughout the dialysis treatment (0.5, 1.0, 2.0 and 3.0 hours) to determine baseline kinetic data. Undiluted ultrafiltrate was obtained from 2 patients by stopping the dialysate flow while maintaining the patient on ultrafiltration. Once 200 ml of dialysate had been displaced from the dialyzer, an undiluted ultrafiltrate sample was drawn from a port specially installed for the study. On the treatment day (a mid-week dialysis session corresponding to day 7 of the study), a single 5 mg/kg dose of Mesna was infused directly into the venous return on the dialysis machine over 5 minutes. […] Undiluted ultrafiltrate was also collected from 2 of the patients as described above. Pre- and post-dialysis blood samples were also drawn on each of the 3 subsequent dialysis treatments (corresponding to days 9, 12 and 14) to determine the duration of Mesna's action and how long it remains in the blood. […] Plasma and ultrafiltrate were stored at -20° C. until analysis. […] Results are shown as mean +/-SD. Intra-dialytic changes in tHcy and cysteine concentrations were analyzed by a paired students t-test.

[6] = tested on: plasma tHcy, fractional excretion of Hcy; experiment: Oral Mesna, Hcy clearance in 2 subjects with normal kidney function; format: in vivo, human
Description: The effect of oral Mesna on Hcy clearance was also evaluated in 2 subjects with normal kidney function. The subjects fluid loaded by consuming 2 L of water the morning of the study day. An indwelling catheter was inserted into an appropriate arm vein. At the beginning of the study subjects were asked to void urine and 2×5 mL blood samples were drawn for analysis of tHcy and creatinine. Subsequent blood samples were drawn at 0.5, 1.0 and 1.5 hours for determination of baseline tHcy and creatinine. At these times subjects were also asked to void urine for measurement of urinary tHcy, creatinine and urine volume. Subjects were then given a 10 mg/kg oral dose of Mesna. One hour after the dose, subjects were asked to void their urine and 2×5 mL blood samples were drawn for determination of tHcy and creatinine. At 1.5, 2.0, and 2.5 hours after Mesna, blood samples were drawn for tHcy and creatinine analysis. Urine was also collected at these times for determination of urinary Hcy, creatinine and urinary volume. A final blood sample was drawn 4 hours after administration of Mesna. Mesna caused a slow, small (1.5 μM) decrease in plasma tHcy concentration in both subjects (see FIG. 14). Mesna was detectable in plasma however, maximum concentration (mean 88.6 μM) was less than the 5 mg/kg administered intravenously to dialysis patients (FIG. 15). The fractional excretion of Hcy ([CLHcy/CLCreat]*100) was assessed in the presence and absence of Mesna (see FIG. 16). In the absence of Mesna the fractional excretion of Hcy was only 0.1%. When Mesna was administered the fractional Hcy excretion raised 60 fold to 6.0%.

plasma Hcy = settings: iv Mesna for 5 days, cancer chemotherapy patients, from 12.3 μmol/L; cited from earlier work
plasma tHcy = settings: oral, 4 weeks of treatment, patients on hemodialysis; cited from earlier work
[7] = isolated perfused rat liver; cited from earlier work
[8] = single 5 mg/kg pre-dialysis iv dose, n=5

O=S(=O)(O)CCS.[Na] [Mesna, sodium 2-mercaptoethane sulfonic acid]
dialysate Hcy with Mesna compared to control (plasma tHcy and cysteine; n=2): slight increase
pre-dialysis plasma tHcy lower with Mesna than control (plasma tHcy and cysteine; next dialysis session 2 days later, P=0.047): 2.3 µM
post-dialysis plasma cysteine (plasma tHcy and cysteine; [8]): 165.1 ± 7.4 µM
post-dialysis plasma tHcy (plasma tHcy and cysteine; [8]): 11.6 ± 1.7 µM
tolerability, side effect ([1]; 5 mg/kg iv, two of 3 patients): mild nausea
effect on fraction of free dialyzable Hcy (protein bound Hcy; 0 to 10 000 μM Mesna, plasma spiked 30 μM Hcy, n=6): concentration dependent increase
AUC of thiol exchange, ESRD serum vs. healthy controls (protein bound Hcy; 300 μM Mesna, P>0.05): no significant difference
AUC of free Hcy vs time (protein bound Hcy): 1023+/−86.0
time to maximal thiol exchange after Mesna addition (protein bound Hcy; further in vitro studies with plasma): ≤ 2 min
elimination during dialysis [2]: first order elimination
free Hcy as % of the total plasma Hcy (albumin bound Hcy; 15 minute incubation): 27.2% and 27%
Hcy in the free dialyzable form (ultrafiltrate) (albumin bound Hcy; 15 minute incubation at 37° C., plasma spiked with 30 μmol/L Hcy): 8.2 µmol/L
concentration at 14 study day ([3]; human, plasma, intravenous, 5 mg/kg, end of the study period (day 14)): 13.4 µM
concentration at 4 min ([3]; human, plasma, shortly after administration, 5 mg/kg iv, 3 patients): 296 µM
plasma Mesna concentration ([3]; post-dialysis, 5 mg/kg iv, 3 patients): 89.7 ± 32.5 µmol/L
plasma Mesna concentration ([3]; second patient, ~3.5 hours after administration, at onset of nausea): ~60 µmol/L
pKa of the thiol [4]: 9.1
effect on post-dialysis cysteine ([5]; 5 mg/kg iv, 3 patients, p=0.009): significant decrease
effect on post-dialysis tHcy ([5]; 5 mg/kg iv, 3 patients, p=0.035): significant decrease
pre-dialysis plasma Hcy at second cycle after Mesna ([5]; day 12, all patients): returned to baseline
time to decrease of total plasma homocysteine after administration ([5]; intravenous Mesna, human subjects): ≤ 30 min
decrease in pre-dialysis plasma tHcy, day 9 vs day 7 ([5]; patient 1): 3.7 µmol/L
decrease in pre-dialysis plasma tHcy, day 9 vs day 7 ([5]; patient 2): 1.1 µmol/L
decrease in pre-dialysis plasma tHcy, day 9 vs day 7 ([5]; patient 3): 3.1 µmol/L
post-dialysis tHcy concentration ([5]; single iv 5 mg/kg Mesna, 3 ESRD patients): 10.1 µmol/L
additional decrease of total plasma Hcy compared to dialysis alone ([5]; single iv 5 mg/kg dose during dialysis): 29%
UF Hcy following Mesna treatment ([5]; undiluted ultrafiltrate, 2 patients): No increase
rise of fractional Hcy excretion ([6]; 10 mg/kg oral dose vs absence of Mesna): 60 fold
decrease in plasma tHcy concentration ([6]; 10 mg/kg oral dose, 2 subjects with normal kidney function): 1.5 µM
fractional excretion of Hcy ([CLHcy/CLCreat]*100) ([6]; 10 mg/kg oral dose, normal kidney function): 6.0%
plasma Hcy after Mesna (plasma Hcy): 1.4 µmol/L

CC(=O)N[C@@H](CS)C(=O)O [NAC, n-acetylcysteine]
AUC of free Hcy vs time (protein bound Hcy): 642+/−49.7
effect on pre-dialysis plasma tHcy (plasma tHcy): small, non-significant decrease

N[C@@H](CS)C(=O)O [cysteine]
pKa of the thiol [4]: 8.15

O=S(=O)([O-])CCSSCCS(=O)(=O)[O-].[Na+].[Na+] [diMesna, Mesna disulfide]
metabolic reduction [7]: reduce diMesna to Mesna

CN(C)CCOC(c1ccccc1)c1ccccc1.Cn1c(=O)c2[nH]c(Cl)nc2n(C)c1=O [dimenhydrinate]
time to reversal of nausea symptoms ([1]; administration of dimenhydrinate to patients with Mesna-associated nausea): ≤ 1 min

N[C@@H](CCS)C(=O)O [homocysteine]
pKa of the thiol [4]: 8.7
